Measured values: PMC9295122, “Sialic Acid Derivatives Inhibit SiaT Transporters and Delay Bacterial Growth” (ACS Chemical Biology, 2022)

Tests used:
SiaT from S. aureus = SiaT from S. aureus (Staphylococcus aureus, UniProt A0A0H2XJ46); assay: [3H]Neu5Ac uptake in proteoliposomes, SaSiaT; conditions: for type of inhibition: SaSiaT, Lineweaver–Burk plot
Method: To gain further insights into the molecular mechanisms, we investigated the direct effects of compounds 3e and 3f on the transport activity in proteoliposomes reconstituted with PmSiaT and SaSiaT. A kinetic analysis was performed by measuring the concentration-dependent uptake of [^3H]Neu5Ac in the presence of two different concentrations of the inhibitors 3f (Figure 5a,c) or 3e (Figure 5b,d).
Figure 5 Kinetic analysis of the inhibition of recombinant SiaT from P. mirabilis (A,B) and S. aureus (C,D) reconstituted in proteoliposomes and [^3H]Neu5Ac efflux in proteoliposomes (E,F). (a–d) Data were plotted according to Lineweaver–Burk as a reciprocal transport rate vs reciprocal Neu5Ac concentration. The transport rate was measured, in 5 min, by adding [^3H] Neu5Ac at the indicated concentrations to proteoliposomes containing 20 mM K^+-gluconate in the presence of valinomycin as described in the Supporting Information. [(A,B) P. mirabilis SiaT]; (A) compound 3f 0.25 μM (●) or 0.75 μM (□) was added in comparison to samples without inhibitor (○). (B) Compound 3e 12 μM (●) or 40 μM (□) was added in comparison to samples without an inhibitor (○). [(C,D) S. aureus SiaT]. (C) Compound 3f 80 μM (●) or 200 μM (□) was added in comparison to samples without an inhibitor (○). (D) Compound 3e 5 μM (●) or 12 μM (□) was added in comparison to samples without an inhibitor (○). Results are mean ± s.d. from four independent experiments (n = 4). […] Data are calculated as the percent of residual activity with respect to the control sample (efflux time zero). The results are the means ± s.d. of three independent experiments.
The purified SiaT from P. mirabilis and S. aureus was reconstituted by using the detergent removal procedure with the batchwise method previously pointed out.[16],[21] In brief, 2.5 μg or 5 μg of P. mirabilis and S. aureus SiaT, respectively, were mixed with 120 μL 10% C12E8, 100 μL of 10% egg yolk phospholipids (w/v, in the form of sonicated liposomes as previously described),[43] […]
For uptake experiments, 600 μL of proteoliposomes were loaded onto a Sephadex G-75 column (0.7 cm diameter × 15 cm height), pre-equilibrated with 20 mM Hepes Tris pH 7.0 with 40 mM sucrose to balance the internal osmolarity. […] For kinetic measurement, the initial transport rate was measured by stopping the reaction after 5 min, that is, within the initial linear range of [^3H]-Neu5Ac uptake into the proteoliposomes previously described. […] In both uptake and efflux experiments, the transport assay was terminated by loading each proteoliposome sample (100 μL) on a Sephadex G-75 column (0.6 cm diameter × 8 cm height) to remove the external radioactivity. Proteoliposomes were eluted with 1 mL of 50 mM NaCl and collected in a 4 mL of scintillation mixture, vortexed and counted.

SaSiaT = SaSiaT (Staphylococcus aureus, UniProt A0A0H2XJ46); assay: [3H]Neu5Ac efflux in proteoliposomes, SaSiaT; type: biochemical; conditions: 0.1 mM external compound
Sequence of SaSiaT (A0A0H2XJ46 entry or part of it): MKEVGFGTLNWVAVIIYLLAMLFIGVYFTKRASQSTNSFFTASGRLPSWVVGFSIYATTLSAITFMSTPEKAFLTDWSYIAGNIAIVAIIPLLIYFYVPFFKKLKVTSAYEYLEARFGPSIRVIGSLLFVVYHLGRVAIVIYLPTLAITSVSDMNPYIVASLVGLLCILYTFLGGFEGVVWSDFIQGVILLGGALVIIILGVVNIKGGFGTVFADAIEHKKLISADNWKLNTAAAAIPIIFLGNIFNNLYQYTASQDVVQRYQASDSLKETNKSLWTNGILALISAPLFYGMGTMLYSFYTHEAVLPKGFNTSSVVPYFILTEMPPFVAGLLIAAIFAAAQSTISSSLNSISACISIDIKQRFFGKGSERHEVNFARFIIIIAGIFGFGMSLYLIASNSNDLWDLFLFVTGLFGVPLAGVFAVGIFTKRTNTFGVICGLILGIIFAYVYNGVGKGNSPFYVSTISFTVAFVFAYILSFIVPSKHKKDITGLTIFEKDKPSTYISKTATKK
Method: Figure 5 Kinetic analysis of the inhibition of recombinant SiaT from P. mirabilis (A,B) and S. aureus (C,D) reconstituted in proteoliposomes and [^3H]Neu5Ac efflux in proteoliposomes (E,F). (a–d) Data were plotted according to Lineweaver–Burk as a reciprocal transport rate vs reciprocal Neu5Ac concentration. The transport rate was measured, in 5 min, by adding [^3H] Neu5Ac at the indicated concentrations to proteoliposomes containing 20 mM K^+-gluconate in the presence of valinomycin as described in the Supporting Information. [(A,B) P. mirabilis SiaT]; (A) compound 3f 0.25 μM (●) or 0.75 μM (□) was added in comparison to samples without inhibitor (○). […] Data are calculated as the percent of residual activity with respect to the control sample (efflux time zero). […]
For uptake experiments, 600 μL of proteoliposomes were loaded onto a Sephadex G-75 column (0.7 cm diameter × 15 cm height), pre-equilibrated with 20 mM Hepes Tris pH 7.0 with 40 mM sucrose to balance the internal osmolarity. […] For kinetic measurement, the initial transport rate was measured by stopping the reaction after 5 min, that is, within the initial linear range of [^3H]-Neu5Ac uptake into the proteoliposomes previously described. […] Proteoliposomes were eluted with 1 mL of 50 mM NaCl and collected in a 4 mL of scintillation mixture, vortexed and counted.

Sequence of SiaT from S. aureus (A0A0H2XJ46 entry or part of it): as above

Compound	Ki (SiaT from S. aureus)	type of inhibition (SiaT from S. aureus)	[3H]Neu5Ac efflux induced (SaSiaT)
CC(=O)NC1C(OCc2cc(F)cc(F)c2)CC(O)(C(=O)O)OC1C(O)C(O)CO (stereo not drawn) [Compound 3e]	2.8 ± 0.5 µM	competitive inhibitors	to the same extent as Neu5Ac
CC(=O)NC1C(OCc2cc(Br)cc(Br)c2)CC(O)(C(=O)O)OC1C(O)C(O)CO (stereo not drawn) [Compound 3f]	53.6 ± 11.1 µM	competitive inhibitors	negligible
